Earlier results in patent US20180015074A1, “USE OF MTOR INHIBITORS TO PREVENT AND REGRESS EDHESIONS AND FIBROSIS” (THE BOARD OF REGENTS OF THE UNIVERSITY OF TEXAS SYSTEM, priority 2015, published 2018).
Like-named read-outs stand apart in the source and are kept apart here.

Tests used:
post-surgical adhesions = conditions: daily IP injection immediately following surgery, rat
[1] = tested on: wound strength in the intestine and abdominal fascia

wound infections (post-surgical adhesions): higher rate of wound infections
wound strength ([1]; administration delayed 2-4 days post-surgery): ameliorated this loss
wound strength ([1]; administration immediately following surgery): serious loss of wound strength
Structure (SMILES): CO[C@H]1C[C@@H]2CC[C@@H](C)[C@@](O)(O2)C(=O)C(=O)N2CCCC[C@H]2C(=O)O[C@H]([C@H](C)C[C@@H]2CC[C@@H](O)[C@H](OC)C2)CC(=O)[C@H](C)/C=C(\C)[C@@H](O)[C@@H](OC)C(=O)[C@H](C)C[C@H](C)/C=C/C=C/C=C/1C [rapamycin, (3S,6R,7E,9R,10R,12R,14S,15E,17E,19E,21S,23S,26R,27R,34aS)-9,10,12,13,14,-21,22,23,24,25,26,27,32,33,34,34a-hexadecahydro-9,27-dihydroxy-3-[(1R)-2-[-(1S,3R,4R)-4-hydroxy-3-methoxycyclohexyl]-1-methylethyl]-10,21-dimethoxy-6,8,12,14,20,26-hexamethyl-23,27-epoxy-3H-pyrido[2,1-c][1,4]oxaazacyclohent-ria-contine-1,5,11,28,29(4H,6H,31H)-pentone]
